The text below walks through data of ChEMBL document CHEMBL4266017, “Colony-wise Analysis of a Theonella swinhoei Marine Sponge with a Yellow Interior Permitted the Isolation of Theonellamide I” (J Nat Prod, 2018).

The assay has as its system HeLa. Put plainly: Cytotoxicity against human HeLa cells assessed as decrease in cell viability after 72 hrs by XTT assay. In kind it is functional, cell-based. In general terms: Tetrazolium dyes change colour on reduction, which living cells bring about.

Take `CC(/C=C/c1ccccc1)=C\[C@H](O)[C@@H]1CC(=O)N[C@@H](CO)C(=O)N[C@H]2C[n+]3cc(n([C@@H]4OC[C@H](O)[C@H](O)[C@H]4O)c3)C[C@H](NC(=O)CCC[C@@H](C(=O)[O-])NC(=O)[C@@H](O)CNC(=O)[C@H](Cc3ccc(Br)cc3)NC(=O)[C@H]([C@@H](O)C(N)=O)NC(=O)[C@H](CC(N)=O)NC2=O)C(=O)N[C@@H]([C@H](C)O)C(=O)N[C@@H](CO)C(=O)N[C@@H](Cc2ccccc2)C(=O)N1`: the IC50 is 1900 nM.

By IC50 is commonly meant the midpoint of a concentration-inhibition curve.
